Laboratory results as given in patent EP2340020B1, “MANGANESE AND COBALT COMPLEXES, THEIR PREPARATION AND USE” (GP Investimenti S.r.l., priority 2008, dated 2010).

Assays:
O2^- = O2^- scavenging in a cell-free system (xanthine/xanthine oxidase), NBT oxidation; assay type: biochemical; conditions: compound at 10^-5 M; baseline 294±12 sec.; p<0.01
Description: (§1) In vitro, the xanthine oxidase enzyme metabolises the xanthine substrate and generates uric acid and O2 as products of the reaction, which can be measured spectrophotometrically by oxidation of the NBT chromogen.

[1] = tested on: rat aorta smooth muscle cells (RASM); test: Protection from oxidative stress: MDA levels, O2^- generated by xanthine oxidase/xanthine; assay type: cell-based; conditions: xanthine oxidase/xanthine system; comparable with, or even greater than SOD
Procedure: (§2) The primary targets of the cytotoxic action of ROS are the membrane lipids, which are peroxidised with the formation of malondialdehyde (MDA). This can be measured spectrophotometrically using the chromogen that is generated from the reaction of MDA with thiobarbituric acid. This measurement is consequently a reliable indicator of ROS-induced cell damage.
(§3) Cultures of rat aorta smooth muscle cells (RASM) were prepared in a medium in which O2^- was generated both by means of the xanthine oxidase/xanthine enzymatic system and by RAW 264.7 macrophages stimulation with fMLP (see the two diagrams shown below, respectively).

RAW 264.7 macrophages = test: Toxicity: viability of macrophage cultures; assay type: cell-based
Procedure: The viability of the cultures of RAW 264.7 macrophages was measured at various intervals (24, 48, 72 h) after adding increasing concentrations of the compound of Example 2 (10^-7 M- 10^-4 M).

[2] = tested on: rat aorta smooth muscle cells (RASM); test: Protection from oxidative stress: MDA levels, O2^- generated by fMLP-stimulated RAW 264.7 macrophages; assay type: cell-based; conditions: RAW 264.7 macrophages stimulated with fMLP; comparable with, or even greater than SOD
Procedure: as §2, §3

xanthine oxidase enzyme = test: Uric acid levels in the xanthine/xanthine oxidase system (check for enzyme inhibition); assay type: biochemical
Description: as §1

[3] = tested on: fMLP-stimulated RAW 264.7 macrophages; test: O2^- scavenging in cultures of fMLP-stimulated macrophages, Fe(II)cytC oxidation; assay type: cell-based
Description: The chemotactic peptide fMLP triggers a specific inflammatory activation of the macrophages, which produce high levels of O2^-, that are measurable spectrophotometrically by means of the oxidation of the Fe(II)cytC chromogen.

xanthine oxidase enzyme, sequence (P47989 whole entry, species assumed): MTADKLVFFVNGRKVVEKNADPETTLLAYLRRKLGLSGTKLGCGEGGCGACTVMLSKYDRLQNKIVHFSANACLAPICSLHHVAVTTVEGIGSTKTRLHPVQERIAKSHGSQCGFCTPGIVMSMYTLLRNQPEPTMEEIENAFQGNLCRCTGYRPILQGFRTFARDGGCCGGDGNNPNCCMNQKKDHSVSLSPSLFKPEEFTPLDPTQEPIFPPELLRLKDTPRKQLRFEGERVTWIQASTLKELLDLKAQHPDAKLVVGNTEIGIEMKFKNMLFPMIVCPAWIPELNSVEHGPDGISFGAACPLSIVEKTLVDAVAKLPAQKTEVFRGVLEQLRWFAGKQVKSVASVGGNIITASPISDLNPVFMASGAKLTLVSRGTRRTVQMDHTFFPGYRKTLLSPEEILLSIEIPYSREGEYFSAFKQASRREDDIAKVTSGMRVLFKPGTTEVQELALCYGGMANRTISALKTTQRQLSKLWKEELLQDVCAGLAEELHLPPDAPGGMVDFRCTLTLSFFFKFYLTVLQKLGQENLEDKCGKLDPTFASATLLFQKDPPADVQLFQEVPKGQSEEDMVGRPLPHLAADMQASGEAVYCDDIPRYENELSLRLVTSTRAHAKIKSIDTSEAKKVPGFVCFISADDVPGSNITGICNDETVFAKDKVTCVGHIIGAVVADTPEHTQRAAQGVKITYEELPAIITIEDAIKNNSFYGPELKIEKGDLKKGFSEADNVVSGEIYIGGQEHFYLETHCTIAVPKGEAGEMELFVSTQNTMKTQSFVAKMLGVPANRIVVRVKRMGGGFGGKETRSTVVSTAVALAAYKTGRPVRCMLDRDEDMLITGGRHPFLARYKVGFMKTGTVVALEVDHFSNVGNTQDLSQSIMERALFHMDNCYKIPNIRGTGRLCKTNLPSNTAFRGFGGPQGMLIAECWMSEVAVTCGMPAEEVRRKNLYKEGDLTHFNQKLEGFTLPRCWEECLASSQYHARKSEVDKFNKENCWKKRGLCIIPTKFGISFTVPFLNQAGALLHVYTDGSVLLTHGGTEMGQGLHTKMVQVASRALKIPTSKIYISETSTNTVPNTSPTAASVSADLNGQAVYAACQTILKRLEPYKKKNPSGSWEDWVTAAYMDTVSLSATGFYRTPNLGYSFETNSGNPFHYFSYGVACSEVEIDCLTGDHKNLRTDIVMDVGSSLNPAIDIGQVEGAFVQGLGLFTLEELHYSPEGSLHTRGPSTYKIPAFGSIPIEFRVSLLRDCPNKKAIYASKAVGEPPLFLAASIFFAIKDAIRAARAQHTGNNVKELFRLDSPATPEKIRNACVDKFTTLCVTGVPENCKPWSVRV

levels of uric acid (xanthine oxidase enzyme)	IC50 ([3]; reduction of O2^- generated by fMLP-activated macrophages, read-out: 50% inhibiting concentration (IC50%))	Substance	time taken to oxidise 50% of the NBT (O2^-)	levels of MDA in the RASM cells [1]	cytotoxicity (viability of the cultures) (RAW 264.7 macrophages; 10^-7 M-10^-4 M, 24, 48, 72 h, effect only after 72 hours and at 10^-5-10^-4 M)	cell toxicity at active concentrations (RAW 264.7 macrophages; concentrations of the order of 0.1 milligrams/litre)	levels of MDA in the RASM cells [2]	levels of oxidised Fe(II)cytC ([3]; 10^-9-10^-6 M)	activity when pre-incubated and then removed from the cell cultures before adding the activating stimulus ([3]; pre-incubation, removal before fMLP)	effectiveness in reducing O2^- levels generated by fMLP-activated macrophages ([3]; Figure 2)
does not reduce the levels of uric acid	60 nM	Mn(4,10-dimethyl-1,4,7,10-tetraazacyclododecane-1,7-diacetate) 2H2O) [Example 2]	390 ± 16 s	significantly reduced	mildly cytotoxic only after incubation times of 72 hours and at the greatest concentrations	no cell toxicity	significantly reduced	dose-dependent, significant reduction	remains active	
		MnSO4 [reference compound]								entirely ineffective
